14 compounds from patent US20210309666A1, “SMALL MOLECULE MDM2 PROTEIN DEGRADERS” (THE REGENTS OF THE UNIVERSITY OF MICHIGAN, priority 2018, published 2021) can be followed below.

pIC50: −log10 of the molar value. A value given as a limit tells only on which side of the number the result lay.

The test system of the assay is RS4;11 cells. In words: Cell growth inhibition, 4-day proliferation assay (WST-8). Format: cell-based. The conditions noted are these: Homo sapiens, 96 h; RS4;11 cells, 4 days, WST-8; read-out: RS4; 11 Cells IC50. How it is done: The effect of representative Compounds of the Disclosure on cell viability was determined in a 4-day proliferation assay. Cells were maintained in the appropriate culture medium with 10% FBS at 37° C. and an atmosphere of 5% CO2. Also, the effect of a MDM2 inhibitor (Cpd. A; see Compound Example No. 22 of U.S. Pat. No. 8,629,141) and a known MDM2 degrader (Cpd. D, see Cpd. No. 175 of WO 2017/0176957) on cell viability in various cell lines is also included in Table 5. Cpd. […] A and D. The structure of Cpd. A is:
Cells were seeded in 96-well flat bottom (Corning COSTAR, Corning, N.Y., cat #3595) at a density of 2,000-3,000 cells/well in 100 μL of culture medium. Compounds were serially diluted in the appropriate medium, and 100 μL of the diluted compounds were added to the appropriate wells of the cell plate. After the addition of compounds, the cells were incubated at 37° C. in an atmosphere of 5% CO2 for 4 days. Cell viability was determined using the WST (2-(2-methoxy-4-nitrophenyl)-3-(4-nitrophenyl)-5-(2,4-disulfophenyl)-2H-tetrazolium, monosodium salt) Cell Counting-8 Kit (Dojindo Molecular Technologies, Inc., Rockville, Md.) according to the manufacturers' instructions.
WST-8 reagent was added to each well at a final concentration of 10% (v/v), and then the plates were incubated at 37° C. for 1-2 hours for color development. The absorbance was measured at 450 nm using a SPECTRAmax PLUS plate reader (Molecular Devices, Sunnyvale, Calif.). The readings were normalized to the DMSO-treated cells and the half maximal inhibitory concentration (IC50) was calculated by nonlinear regression (four parameters sigmoid fitted with variable slope, least squares fit, and no constraint) analysis using the GraphPad Prism 5 software (GraphPad Software, La Jolla, Calif.).
On the technique in general: Tetrazolium dyes change colour on reduction, which living cells bring about.
As for `O=C1CCC(N2Cc3c(C#CC4CCN(C(=O)CN5CCN(C(=O)[C@@H]6NC7(CCCCC7)[C@@]7(C(=O)Nc8cc(Cl)ccc87)[C@H]6c6cccc(Cl)c6F)CC5)CC4)cccc3C2=O)C(=O)N1` (stereo partly drawn) [Cpd. No. 7, 3-(4-((1-(2-(4-((3′R,4′S,5′R)-6″-chloro-4′-(3-chloro-2-fluorophenyl)-2″-oxodispiro[cyclohexane-1,2′-pyrrolidine-3′,3″-indoline]-5′-carbonyl)piperazin-1-yl)acetyl)piperidin-4-yl)ethynyl)-1-oxoisoindolin-2-yl)piperidine-2,6-dione], the pIC50 is below 7.00.

In the case of `O=C1CCC(N2Cc3c(C#CCCCNC(=O)[C@H]4CC[C@H](NC(=O)[C@@H]5NC6(CCCCC6)[C@@]6(C(=O)Nc7cc(Cl)ccc76)[C@H]5c5ccccc5)CC4)cccc3C2=O)C(=O)N1` (stereo partly drawn) [Cpd. No. 27, (3′R,4′R,5′R)-6″-chloro-N-((1r,4R)-4-((5-(2-(2,6-dioxopiperidin-3-yl)-1-oxoisoindolin-4-yl)pent-4-yn-1-yl)carbamoyl)cyclohexyl)-2″-oxo-4′-phenyldispiro[cyclohexane-1,2′-pyrrolidine-3′,3″-indoline]-5′-carboxamide], the pIC50 was below 7.00.

For `O=C1CCC(N2Cc3c(C#CC4CCN(C(=O)CC5CCN(C(=O)[C@@H]6NC7(CCCCC7)[C@@]7(C(=O)Nc8cc(Cl)ccc87)[C@H]6c6cccc(Cl)c6F)CC5)CC4)cccc3C2=O)C(=O)N1` (stereo partly drawn) [Cpd. No. 29, 3-(4-((1-(2-(1-((3′R,4′S,5′R)-6″-chloro-4′-(3-chloro-2-fluorophenyl)-2″-oxodispiro[cyclohexane-1,2′-pyrrolidine-3′,3″-indoline]-5′-carbonyl)piperidin-4-yl)acetyl)piperidin-4-yl)ethynyl)-1-oxoisoindolin-2-yl)piperidine-2,6-dione], the pIC50 was below 7.00.

In the case of `CC(C)[C@@H](CS(=O)(=O)C(C)C)N1C(=O)[C@@](C)(CC(=O)NCCCC#Cc2cccc3c2CN(C2CCC(=O)NC2=O)C3=O)C[C@H](c2cccc(Cl)c2)[C@H]1c1ccc(Cl)cc1` (stereo partly drawn) [Cpd. No. 37, 2-((3R,5R,6S)-5-(3-chlorophenyl)-6-(4-chlorophenyl)-1-((S)-1-(isopropylsulfonyl)-3-methylbutan-2-yl)-3-methyl-2-oxopiperidin-3-yl)-N-(5-(2-(2,6-dioxopiperidin-3-yl)-1-oxoisoindolin-4-yl)pent-4-yn-1-yl)acetamide], the pIC50 is below 7.00.

Consider `O=C1CCC(N2Cc3c(C#CC4CCN(C(=O)CN5CCC(NC(=O)[C@@H]6NC7(CCCCC7)[C@@]7(C(=O)Nc8cc(Cl)ccc87)[C@H]6c6cccc(Cl)c6F)CC5)CC4)cccc3C2=O)C(=O)N1` (stereo partly drawn) [Cpd. No. 5, (3′R,4′S,5′R)-6″-chloro-4′-(3-chloro-2-fluorophenyl)-N-(1-(2-(4-((2-(2,6-dioxopiperidin-3-yl)-1-oxoisoindolin-4-yl)ethynyl)piperidin-1-yl)-2-oxoethyl)piperidin-4-yl)-2″-oxodispiro[cyclohexane-1,2′-pyrrolidine-3′,3″-indoline]-5′-carboxamide], for which the pIC50 is 8.51.

On to `O=C1CCC(N2Cc3c(C#CC4CN(C(=O)C56CCC(NC(=O)[C@@H]7NC8(CCCCC8)[C@@]8(C(=O)Nc9cc(Cl)ccc98)[C@H]7c7cccc(Cl)c7F)(CC5)CC6)C4)cccc3C2=O)C(=O)N1` (stereo partly drawn) [Cpd. No. 33, (3′R,4′S,5′R)-6″-chloro-4′-(3-chloro-2-fluorophenyl)-N-(4-(3-((2-(2,6-dioxopiperidin-3-yl)-1-oxoisoindolin-4-yl)ethynyl)azetidine-1-carbonyl)bicyclo[2.2.2]octan-1-yl)-2″-oxodispiro [cyclohexane-1,2′-pyrrolidine-3′,3″-indoline]-5′-carboxamide], for which the pIC50 is 8.92.

For the compound `O=C1CCC(N2Cc3c(C#CCCCNC(=O)[C@H]4CC[C@H](NC(=O)[C@@H]5NC6(CCCCC6)[C@@]6(C(=O)Nc7cc(Cl)ccc76)[C@H]5c5cccc(Cl)c5)CC4)cccc3C2=O)C(=O)N1` (stereo partly drawn) [Cpd. No. 26, (3′R,4′R,5′R)-6″-chloro-4′-(3-chlorophenyl)-N-((1r,4R)-4-((5-(2-(2,6-dioxopiperidin-3-yl)-1-oxoisoindolin-4-yl)pent-4-yn-1-yl)carbamoyl)cyclohexyl)-2″-oxodispiro[cyclohexane-1,2′-pyrrolidine-3′,3″-indoline]-5′-carboxamide], the pIC50 is 9.15.

On to `CC1(C#Cc2cccc3c2CN(C2CCC(=O)NC2=O)C3=O)CCN(C(=O)[C@H]2CC[C@H](NC(=O)[C@@H]3NC4(CCCCC4)[C@@]4(C(=O)Nc5cc(Cl)ccc54)[C@H]3c3cccc(Cl)c3F)CC2)CC1` (stereo partly drawn) [Cpd. No. 30, (3′R,4′S,5′R)-6″-chloro-4′-(3-chloro-2-fluorophenyl)-N-(4-(4-((2-(2,6-dioxopiperidin-3-yl)-1-oxoisoindolin-4-yl)ethynyl)-4-methylpiperidine-1-carbonyl)cyclohexyl)-2″-oxodispiro[cyclohexane-1,2′-pyrrolidine-3′,3″-indoline]-5′-carboxamide], for which the pIC50 was 8.92.

As to `COc1cc(C(=O)N2CCC(C#Cc3cccc4c3CN(C3CCC(=O)NC3=O)C4=O)CC2)ccc1NC(=O)[C@@H]1NC2(CCCCC2)[C@@]2(C(=O)Nc3cc(Cl)ccc32)[C@H]1c1cccc(Cl)c1F` (stereo partly drawn) [Cpd. No. 28, (3′R,4′S,5′R)-6″-chloro-4′-(3-chloro-2-fluorophenyl)-N-(4-(4-((2-(2,6-dioxopiperidin-3-yl)-1-oxoisoindolin-4-yl)ethynyl)piperidine-1-carbonyl)-2-methoxyphenyl)-2″-oxodispiro[cyclohexane-1,2′-pyrrolidine-3′,3″-indoline]-5′-carboxamide], the pIC50 is below 7.00.

For `O=C1CCC(N2Cc3c(NC4CCN(CCCNC(=O)C56CCC(NC(=O)[C@@H]7NC8(CCCCC8)[C@@]8(C(=O)Nc9cc(Cl)ccc98)[C@H]7c7cccc(Cl)c7F)(CC5)CC6)CC4)cccc3C2=O)C(=O)N1` (stereo partly drawn) [Cpd. No. 1, (3′R,4′S,5′R)-6″-chloro-4′-(3-chloro-2-fluorophenyl)-N-(4-((3-(4-((2-(2,6-dioxopiperidin-3-yl)-1-oxoisoindolin-4-yl)amino)piperidin-1-yl)propyl)carbamoyl)bicyclo[2.2.2]octan-1-yl)-2″-oxodispiro[cyclohexane-1,2′-pyrrolidine-3′,3″-indoline]-5′-carboxamide], the pIC50 is 8.62.

Regarding `O=C1CCC(N2Cc3c(C#CC4CCN(C(=O)C56CC(NC(=O)[C@@H]7NC8(CCCCC8)[C@@]8(C(=O)Nc9cc(Cl)ccc98)[C@H]7c7cccc(Cl)c7F)(C5)C6)CC4)cccc3C2=O)C(=O)N1` (stereo partly drawn) [Cpd. No. 11, (3′R,4′S,5′R)-6″-chloro-4′-(3-chloro-2-fluorophenyl)-N-(3-(4-((2-(2,6-dioxopiperidin-3-yl)-1-oxoisoindolin-4-yl)ethynyl)piperidine-1-carbonyl)bicyclo[1.1.1]pentan-1-yl)-2″-oxodispiro[cyclohexane-1,2′-pyrrolidine-3′,3″-indoline]-5′-carboxamide], the pIC50 was 9.52.

For `CC(C)(C)C[C@@H]1N[C@@H](C(=O)N[C@H]2CC[C@H](C(=O)NCCCC#Cc3cccc4c3CN(C3CCC(=O)NC3=O)C4=O)CC2)[C@H](c2cccc(Cl)c2F)[C@]12C(=O)Nc1cc(Cl)ccc12` (stereo partly drawn) [Cpd. No. 3, (2′S,3R,4′S,5′R)-6-chloro-4′-(3-chloro-2-fluorophenyl)-N-((1r,4R)-4-((5-(2-(2,6-dioxopiperidin-3-yl)-1-oxoisoindolin-4-yl)pent-4-yn-1-yl)carbamoyl)cyclohexyl)-2′-neopentyl-2-oxospiro[indoline-3,3′-pyrrolidine]-5′-carboxamide], the pIC50 was 9.21.

Turning to `CN1[C@@H](C(=O)NC23CCC(C(=O)N4CCC(C#Cc5cccc6c5CN(C5CCC(=O)NC5=O)C6=O)CC4)(CC2)CC3)[C@H](c2cccc(Cl)c2F)[C@]2(C(=O)Nc3cc(Cl)ccc32)C12CCCCC2` (stereo partly drawn) [Cpd. No. 10, (3′R,4′S,5′R)-6″-chloro-4′-(3-chloro-2-fluorophenyl)-N-(4-(4-((2-(2,6-dioxopiperidin-3-yl)-1-oxoisoindolin-4-yl)ethynyl)piperidine-1-carbonyl)bicyclo[2.2.2]octan-1-yl)-1 ′-methyl-2″-oxodispiro[cyclohexane-1,2′-pyrrolidine-3′,3″-indoline]-5′-carboxamide], the pIC50 was 8.10.

Consider `CCN1[C@@H](C(=O)Nc2ccc(C(=O)N3CCC(C#Cc4cccc5c4CN(C4CCC(=O)NC4=O)C5=O)CC3)cc2)[C@H](c2cccc(Cl)c2F)[C@]2(C(=O)Nc3cc(Cl)ccc32)C12CCCCC2` (stereo partly drawn) [Cpd. No. 24, (3′R,4′S,5′R)-6″-chloro-4′-(3-chloro-2-fluorophenyl)-N-(4-(4-((2-(2,6-dioxopiperidin-3-yl)-1-oxoisoindolin-4-yl)ethynyl)piperidine-1-carbonyl)phenyl)-1′-ethyl-2″-oxodispiro[cyclohexane-1,2′-pyrrolidine-3′,3″-indoline]-5′-carboxamide], for which the pIC50 is 8.18.
